Experimental data published in patent publication EP1714638A1, “Cosmetic deodorant composition comprising a combination of zinc salicylate or a derivative thereof with an aluminium salt antiperspirant active” (L'ORÉAL, priority 2005, dated 2006).

Assay: Deodorant efficacy test: odour intensity of incubated axillary sweat rated by an expert panel
Set-up: species or system humaine
Conditions: 24 heures d'incubation à 37°C, versus control sweat without active, scale 0-4
Procedure: Des recueils de sueur axillaire sont effectués en sauna sur 6 volontaires, les échantillons de sueur individuelle, conservés dans la glace pendant quelques heures, sont alors pratiquement inodores. Ils sont ensuite mélangés et répartis en aliquots de 1 ml. Les actifs sont rajoutés à ces aliquots, puis mis à incuber à l'étuve 37°C. Après 24 heures d'incubation, un jury d'experts évalue l'intensité de l'odeur comparativement à un échantillon témoin : 1 ml de sueur incubée sans ajout d'actif. L'intensité est évaluée sur une échelle de 0 (pas d'odeur) à 4 (très forte odeur).
Les résultats sont exprimés en % de variation de l'intensité de l'odeur comparativement à cet échantillon de sueur témoin (moyenne des % de variation à T24h). Δ = ((intensité odeur de l'échantillon témoin−intensité odeur de l'échantillon avec actif))/(intensité odeur de l'échantillon témoin) × 100 [formula]

Molecule: Oc1cc(Cl)ccc1Oc1ccc(Cl)cc1Cl [(B), 2,4,4'-trichloro-2'-hydroxydiphényléther]
- % de diminution de l'intensité de l'odeur (0,4 mg MA/ml de sueur): -49%

Molecule: CCCCCC[C@@H](O)C/C=C\CCCCCCCC(=O)[O-].CCCCCC[C@@H](O)C/C=C\CCCCCCCC(=O)[O-].[Zn+2] [(C), Ricinoleate de zinc]
- % de diminution de l'intensité de l'odeur (0,3 mg MA/ml de sueur): -4%

Molecule: Aluminium chlorohydrate [ACH]
- % de diminution de l'intensité de l'odeur (0,1 mg MA/ml de sueur): -35%

Molecule: Salicylate de zinc [(A)]
- % de diminution de l'intensité de l'odeur (0,1 mg MA/ml de sueur): -21%
